Results from ChEMBL document CHEMBL5113375, “Development of Mcl-1 inhibitors for cancer therapy” (Eur J Med Chem, 2021).
Each block holds one compound with its values, some of them ahead of it.

Experiments:
[1] = Inhibition of Mcl-1 (172 - 327 residues)/Noxa (unknown origin) by fluorescence polarization assay; set-up: species or system Homo sapiens
Bcl-xL/BAK [2] = target: T1, Bcl-xL/BAK (Homo sapiens, UniProt Q07817); test: Inhibition of Bcl-xL/Bak (unknown origin) by fluorescence polarization assay; format: protein assay
MCL1-BAK1 complex [3] = target: T2, MCL1-BAK1 complex (Homo sapiens, UniProt Q07820); test: Inhibition of Mcl-1/Bak (unknown origin) by fluorescence polarization assay; format: protein-complex assay
MCL1-BAK1 complex [4] = target: T2, MCL1-BAK1 complex; test: Binding affinity to Mcl-1/Bak (unknown origin) assessed as inhibition constant by fluorescence polarization assay; format: protein-complex assay
Bcl-xL/BAK [5] = target: T1, Bcl-xL/BAK; test: Binding affinity to Bcl-xL/Bak (unknown origin) assessed as dissociation constant by ITC method; format: protein assay
[6] = target: Bcl-xL/BH3-interacting domain death agonist (Homo sapiens, UniProt Q07817); test: Inhibition of Bcl-xL/Bid complex (unknown origin); format: protein assay
[7] = Cytotoxicity against human MOLP8 cells by caspase-3/7 activation; format: functional, cell-based; settings: MOLP-8
[8] = target: Induced myeloid leukemia cell differentiation protein Mcl-1 (Homo sapiens, UniProt Q07820); test: Binding affinity to wildtype Mcl-1 (unknown origin) assessed as dissociation constant by SPR analysis
[9] = Binding affinity to Mcl-1 H224A (unknown origin) assessed as dissociation constant by SPR analysis; set-up: species or system Homo sapiens
[10] = target: T3, Bcl-xL/Bcl-2-like protein 11 (Homo sapiens, UniProt Q07817); test: Inhibition of GST-tagged Bcl-xL/Bim (unknown origin) incubated for 15 mins followed by Bim addition measured after 2 hrs by ELISA method; format: protein assay
[11] = target: T4, Induced myeloid leukemia cell differentiation protein Mcl-1/Bcl-2-like protein 11 (Homo sapiens, UniProt Q07820); test: Inhibition of GST-tagged Mcl-1/Bim (unknown origin) incubated for 15 mins followed by Bim addition measured after 2 hrs by ELISA method; format: protein assay
[12] = target: Induced myeloid leukemia cell differentiation protein Mcl-1/BH3-interacting domain death agonist (Homo sapiens, UniProt Q07820); test: Binding affinity to Mcl-1/Bid (unknown origin) assessed as inhibition constant by fluorescence polarization assay; format: protein assay
BCL2/BID = BCL2/BID (Homo sapiens, UniProt P10415); test: Binding affinity to Bcl-2 /Bid (unknown origin) assessed as inhibition constant by fluorescence polarization assay; format: protein assay
[13] = target: T4, Induced myeloid leukemia cell differentiation protein Mcl-1/Bcl-2-like protein 11; test: Inhibition of Mcl-1/Bim (unknown origin) by ELISA method; format: protein assay
[14] = target: T3, Bcl-xL/Bcl-2-like protein 11; test: Inhibition of Bcl-xL/Bim (unknown origin) by ELISA method; format: protein assay
[15] = target: Apoptosis regulator Bcl-2/Bcl-2 homologous antagonist/killer (Homo sapiens, UniProt P10415+Q16611); test: Inhibition of Bcl-2/Bak (unknown origin); format: protein assay
BCL2A1/BAK1 = target: T5, BCL2A1/BAK1 (Homo sapiens, UniProt Q16548+Q16611); test: Inhibition of Bfl-1/Bak (unknown origin); format: protein assay
T5 sequence (Q16611 whole entry): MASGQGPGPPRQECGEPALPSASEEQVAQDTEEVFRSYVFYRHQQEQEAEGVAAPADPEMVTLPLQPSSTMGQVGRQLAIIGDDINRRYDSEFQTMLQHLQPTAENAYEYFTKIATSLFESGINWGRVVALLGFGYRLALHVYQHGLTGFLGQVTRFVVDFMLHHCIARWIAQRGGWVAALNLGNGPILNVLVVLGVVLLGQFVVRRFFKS
T5 sequence (Q16548 whole entry): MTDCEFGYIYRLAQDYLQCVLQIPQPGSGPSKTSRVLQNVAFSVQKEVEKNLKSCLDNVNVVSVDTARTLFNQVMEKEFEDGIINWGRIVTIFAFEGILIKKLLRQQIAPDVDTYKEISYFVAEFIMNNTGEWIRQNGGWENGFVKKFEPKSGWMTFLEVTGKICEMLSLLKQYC

[16] = target: T3, Bcl-xL/Bcl-2-like protein 11; test: Binding affinity to Bcl-xL/Bim (unknown origin) assessed as inhibition constant by fluorescence polarization assay; format: protein assay
BCL2/BCL2L11 = BCL2/BCL2L11 (Homo sapiens, UniProt P10415); test: Inhibition of Bcl-2/Bim (unknown origin) by ELISA method; format: protein assay
Sequence of BCL2/BCL2L11 (P10415 whole entry): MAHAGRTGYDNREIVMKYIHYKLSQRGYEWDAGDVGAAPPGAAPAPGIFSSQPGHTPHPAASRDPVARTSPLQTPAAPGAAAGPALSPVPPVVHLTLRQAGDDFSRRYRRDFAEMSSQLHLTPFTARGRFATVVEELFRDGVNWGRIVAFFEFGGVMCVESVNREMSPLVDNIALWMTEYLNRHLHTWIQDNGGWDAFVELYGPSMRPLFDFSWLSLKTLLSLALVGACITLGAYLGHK
Sequence of BCL2/BCL2L11 (O43521 whole entry, further chain): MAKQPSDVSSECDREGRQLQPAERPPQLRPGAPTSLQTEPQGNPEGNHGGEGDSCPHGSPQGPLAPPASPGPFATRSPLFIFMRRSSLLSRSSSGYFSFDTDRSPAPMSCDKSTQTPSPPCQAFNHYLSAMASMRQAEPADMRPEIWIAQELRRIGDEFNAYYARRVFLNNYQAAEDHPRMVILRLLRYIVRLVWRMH

Sequence of BCL2/BID (P10415 whole entry): as the sequence (P10415 whole entry) above
Sequence of BCL2/BID (P55957 whole entry, further chain): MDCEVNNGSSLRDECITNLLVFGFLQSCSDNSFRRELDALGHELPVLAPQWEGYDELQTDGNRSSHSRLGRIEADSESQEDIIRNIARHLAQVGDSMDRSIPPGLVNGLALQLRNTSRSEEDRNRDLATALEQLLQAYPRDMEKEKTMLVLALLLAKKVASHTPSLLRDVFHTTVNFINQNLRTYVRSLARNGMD
T2 sequence (Q07820 whole entry, one chain of several): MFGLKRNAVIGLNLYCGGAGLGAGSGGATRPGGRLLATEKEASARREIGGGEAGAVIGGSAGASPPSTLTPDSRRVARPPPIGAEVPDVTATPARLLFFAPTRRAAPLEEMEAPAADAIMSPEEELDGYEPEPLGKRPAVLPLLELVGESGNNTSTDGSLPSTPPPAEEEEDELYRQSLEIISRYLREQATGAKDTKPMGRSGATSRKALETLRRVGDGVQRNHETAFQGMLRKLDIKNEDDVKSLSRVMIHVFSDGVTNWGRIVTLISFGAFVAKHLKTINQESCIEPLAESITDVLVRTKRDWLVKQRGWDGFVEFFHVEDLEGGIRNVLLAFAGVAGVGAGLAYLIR
Sequence of Induced myeloid leukemia cell differentiation protein Mcl-1/BH3-interacting domain death agonist (Q07820 whole entry, the tested form may be a part): as the sequence (Q07820 whole entry, one chain of several) above
Sequence of Induced myeloid leukemia cell differentiation protein Mcl-1/BH3-interacting domain death agonist (P55957 whole entry, further chain, the tested form may be a part): as the sequence (P55957 whole entry, further chain) above
T4 sequence (Q07820 whole entry, the tested form may be a part): as the sequence (Q07820 whole entry, one chain of several) above
T4 sequence (O43521 whole entry, further chain, the tested form may be a part): as the sequence (O43521 whole entry, further chain) above
T3 sequence (Q07817 whole entry): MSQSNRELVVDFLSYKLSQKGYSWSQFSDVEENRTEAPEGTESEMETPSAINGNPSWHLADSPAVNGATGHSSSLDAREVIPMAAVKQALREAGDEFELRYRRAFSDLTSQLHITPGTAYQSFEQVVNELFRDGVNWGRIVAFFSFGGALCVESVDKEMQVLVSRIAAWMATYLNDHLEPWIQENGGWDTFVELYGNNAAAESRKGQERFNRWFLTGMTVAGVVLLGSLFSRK
T3 sequence (O43521 whole entry, further chain): as the sequence (O43521 whole entry, further chain) above
T1 sequence (Q07817 whole entry, one chain of several): as the sequence (Q07817 whole entry) above
Sequence of Apoptosis regulator Bcl-2/Bcl-2 homologous antagonist/killer (P10415 whole entry, one chain of several): as the sequence (P10415 whole entry) above
Sequence of Induced myeloid leukemia cell differentiation protein Mcl-1 (Q07820 whole entry): as the sequence (Q07820 whole entry, one chain of several) above
Sequence of Bcl-xL/BH3-interacting domain death agonist (Q07817 whole entry, the tested form may be a part): as the sequence (Q07817 whole entry) above
Sequence of Bcl-xL/BH3-interacting domain death agonist (P55957 whole entry, further chain, the tested form may be a part): as the sequence (P55957 whole entry, further chain) above

- IC50 [1]: 500 nM
Structure (SMILES): Cc1ccc(-c2ccc(C(=O)O)c(NS(=O)(=O)c3ccc(Oc4ccccc4)cc3)c2)c2ccccc12

- IC50 (Bcl-xL/BAK [2]): 91000 nM
- IC50 (MCL1-BAK1 complex [3]): 110000 nM
- Ki (MCL1-BAK1 complex [4]): 44000 nM
- Kd (Bcl-xL/BAK [5]): 8700 nM
Structure (SMILES): CC(C)C(C(=O)O)N1C(=O)/C(=C/c2ccc(Br)cc2)SC1=S (stereo unspecified)

Structure (SMILES): C[n+]1cc2cc3c(cc2c2ccc4cc5c(cc4c21)OCO5)OCO3
- IC50 (Bcl-xL/BAK [2]): 19000 nM
- IC50 (MCL1-BAK1 complex [3]): 44000 nM

Structure (SMILES): Cc1cs/c(=N\C2CCCCC2)n1/N=C/c1ccc(O)c(O)c1O
- IC50 [6]: > 50000 nM

- IC50 [1]: 400 nM
Structure (SMILES): Cc1ccc(-c2ccc(C(=O)O)c(NS(=O)(=O)c3ccccc3)c2)c2ccccc12

Structure (SMILES): Cc1c(-c2cccc3c(CCCOc4cccc5ccccc45)c(C(=O)O)n(C)c23)c(COc2ccc(B(O)O)c(C=O)c2)nn1C
- IC50 [7]: 75 nM

- Kd [8]: 430 nM
- Kd [9]: 410 nM
Structure (SMILES): N#CC1=C(C#N)c2ccc(Sc3ccc(Br)cc3)c3cccc(c23)C1=O

- IC50 [10]: 600 nM
- IC50 [11]: 700 nM
Structure (SMILES): COc1ccc(CSc2ccc(C(=O)c3[nH]c(Cl)c(Cl)c3-n3cc(Cl)c(Cl)c3C(=O)c3ccc(SCc4ccc(OC)cc4)cc3O)c(O)c2)cc1

- Ki (BCL2/BID): 310 nM
Structure (SMILES): N#CC1=C(C#N)c2ccc(N3CCSCC3)c3cccc(c23)C1=O
- Ki [12]: 58 nM

- IC50 [10]: 600 nM
- IC50 [11]: 700 nM
Structure (SMILES): O=C(c1ccc(SCc2ccccc2)cc1O)c1[nH]c(Cl)c(Cl)c1-n1cc(Cl)c(Cl)c1C(=O)c1ccc(SCc2ccccc2)cc1O

- Ki (MCL1-BAK1 complex [4]): 7770 nM
Structure (SMILES): Cc1cc(OCCCS(=O)(=O)N2CC(C(=O)O)Cc3ccccc32)cc(C)c1Cl (stereo unspecified)

- IC50 [13]: 4300 nM
- IC50 [14]: 3400 nM
Structure (SMILES): COC(=O)c1ccc(C(=O)c2c(Cl)c(Cl)c3n2-c2c([nH]c(Cl)c2Cl)C(=O)c2ccc(C(=O)OC)cc2O3)c(O)c1

- IC50 (BCL2A1/BAK1): 400 nM
Structure (SMILES): Cc1cc2c(C(=O)NC(C)c3ccc(Cl)cc3)c(O)c(O)cc2c(O)c1-c1c(C)cc2c(C(=O)NC(C)c3ccc(Cl)cc3)c(O)c(O)cc2c1O (stereo unspecified)
- IC50 [15]: 490 nM

Structure (SMILES): CC(=O)c1cc(OCc2nn(C)c(C)c2-c2cccc3c(CCCOc4cccc5ccccc45)c(C(=O)O)[nH]c23)ccc1B(O)O
- IC50 [7]: 170 nM

Structure (SMILES): Cc1c(-c2cccc3c(CCCOc4cccc5ccccc45)c(C(=O)O)[nH]c23)c(COc2ccc(B(O)O)c(C=O)c2)nn1C
- IC50 [7]: 460 nM

- IC50 [13]: 1400 nM
- IC50 [14]: 2300 nM
Structure (SMILES): O=C1c2ccc(OS(=O)(=O)C(F)(F)F)cc2Oc2c(Cl)c(Cl)c(C(=O)c3ccc(OS(=O)(=O)C(F)(F)F)cc3O)n2-c2c1[nH]c(Cl)c2Cl

- Ki [16]: 290 nM
- Ki (BCL2/BID): 540 nM
Structure (SMILES): CCOC(=O)C1=CN=c2s/c(=C\c3cn(Cc4ccccc4)c4ccccc34)c(=O)n2[C@@H]1c1cccc(C(C)=O)c1
- Ki [12]: 290 nM

- Ki [16]: 340 nM
- Ki (BCL2/BID): 590 nM
Structure (SMILES): CCOC(=O)C1=CN=c2s/c(=C\c3cn(Cc4ccccc4)c4ccccc34)c(=O)n2[C@H]1c1cccc(C(C)=O)c1
- Ki [12]: 740 nM

- IC50 [13]: 11800 nM
- IC50 (BCL2/BCL2L11): 4940 nM
Structure (SMILES): N#CC1=C(NCCC(=O)CCCCC(=O)NCCOCCOCCNc2cccc3c2C(=O)N(C2CCC(=O)NC2=O)C3=O)c2ccc(Sc3ccc(Br)cc3)c3cccc(c23)C1=O (stereo unspecified)

- IC50 [1]: 80 nM
Structure (SMILES): C=C(c1ccc(S(=O)(=O)Nc2cc(-c3ccc(C)c4ccccc34)ccc2C(=O)O)cc1)C(C)C

- Ki (MCL1-BAK1 complex [4]): 153 nM
Structure (SMILES): CC1=C[C@@H](/C=C(\C)c2ccc(C(=O)O)cc2)[C@]2(C(=O)O)C=C[C@@H](CCOC(=O)c3ccc(Oc4cccnc4)cc3)C[C@@H]2C1
- Ki [12]: 106 nM

- Ki [16]: 550 nM
- Ki (BCL2/BID): 1000 nM
Structure (SMILES): COC(=O)C1=CN=c2s/c(=C\c3cn(Cc4ccccc4)c4ccccc34)c(=O)n2[C@@H]1c1ccc(C(C)=O)cc1
- Ki [12]: 420 nM
